{"source": "patent US20240238379A1", "about": "“Compositions and Methods for the Prevention and Treatment of Stress-Induced Fear, Depressive-Like and Anxiety-Like Behavior” (The Trustees of Columbia University in the City of New York, priority 2021, published 2024)", "key": {"129S6/SvEv mice [1]": {"test_system": "129S6/SvEv mice", "assay": "Contextual fear conditioning (CFC) freezing", "format": "in vivo", "conditions": "for Freezing upon CFC re-exposure, (R,S)-ketamine versus saline: female mice, IP 10 mg/kg one week before CFC", "protocol": "Saline, (R,S)-ketamine (10 mg/kg), or Bay 55-9837 (2.5 or 5 mg/kg) was administered 1 week prior to 3-shock contextual fear conditioning (CFC) stress in female 129S6/SvEv mice. Five days later, mice were assayed for fear, behavioral despair, locomotion, exploratory behavior, and hyponcophagia.\nMale 129S6/SvEv mice were administered the same behavioral paradigm as described in Example 1. […] There was no effect of drug on immobility time during FST Day 1.\nFemale 129S6/SvEv mice were given a single injection of saline, (R,S)-ketamine (10 mg/kg), or Bay 55-9837 (2.5 mg/kg) 5 minutes after 3-shock CFC training.\nMale 129S6/SvEv mice were administered the same behavioral paradigm as in Example 3. […] Similarly, in the NSF, Bay 55-9837, but not (R,S)-ketamine suppressed latency to feed in the OF when compared with saline controls.\nFemale 129S6/SEv mice were administered a single injection of saline of Bay 55-9837 (2.5 mg/kg) and placed in Piezo sleep boxes. One week later, mice were administered 3-shock CFC training or context exposure and again placed back into Piezo sleep boxes. Five days later, mice were re-exposed to the training context. […] During CFC training, there was no effect of drug. […] There was a significant effect of drug and stress as well as a drug x stress interaction.\n(§1) Female 129S6/SvEv mice were administered an intracerebroventricular infusion of artificial cerebrospinal fluid, PACAP (6-38) (VPAC2 antagonist), or Bay 55-9837. Five minutes after, mice were given an IP injection of saline or (R,S)-ketamine (10 mg/kg). One week later, mice were administered 3-shock CFC training. Five days subsequently, mice were tested in CFC re-exposure and the FST. […] Upon CFC re-exposure, there was a significant group x drug interaction. […] In the PACAP (6-38) group, the prophylactic effect of (R,S)-ketamine was blocked."}, "129S6/SvEv mice [2]": {"test_system": "129S6/SvEv mice", "assay": "Forced swim test (FST)", "format": "in vivo", "conditions": "female mice", "protocol": "as §1, with “blocked. […]” for “blocked.”"}}, "data": [{"compound": "CNC1(c2ccccc2Cl)CCCCC1=O", "note": "(racemic) [(R,S)-ketamine]", "values": [{"measurement": "Freezing upon CFC re-exposure, (R,S)-ketamine versus saline", "setting": "129S6/SvEv mice [1]; PACAP(6-38) ICV group", "value": "not significantly different"}, {"measurement": "Freezing upon CFC re-exposure, (R,S)-ketamine versus saline", "setting": "129S6/SvEv mice [1]; Vehicle ICV group", "value": "not significantly different"}, {"measurement": "Freezing during CFC re-exposure", "setting": "129S6/SvEv mice [1]; male mice, same paradigm as Example 3", "value": "did not significantly alter"}, {"measurement": "Freezing during CFC training", "setting": "129S6/SvEv mice [1]; male mice, same paradigm as Example 3 (single injection 5 minutes after 3-shock CFC training)", "value": "did not significantly alter"}, {"measurement": "Behavioral despair on FST Day 2", "setting": "129S6/SvEv mice [2]; 1 week prior to 3-shock CFC stress, 10 mg/kg", "value": "reduced"}, {"measurement": "Immobility time on Day 2 of the FST", "setting": "129S6/SvEv mice [2]; 5 minutes after 3-shock CFC training, 10 mg/kg", "value": "significantly reduced"}, {"measurement": "Immobility on FST Day 2 compared with Vehicle/saline", "setting": "129S6/SvEv mice [2]; ICV Vehicle then IP (R,S)-ketamine 10 mg/kg", "value": "significantly lower"}]}, {"compound": "PACAP (6-38)", "values": [{"measurement": "Prophylactic effect of (R,S)-ketamine on FST Day 2", "setting": "129S6/SvEv mice [2]; ICV PACAP (6-38) then IP (R,S)-ketamine 10 mg/kg", "value": "blocked"}]}]}
